Reference: PubChem BioAssay (NCI)
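Results reflect a 48-hour exposure of cells in 96-well plates to compound at five concentrations. GI50 is the concentration that inhibits growth by half. The concentration for full growth arrest is given as TGI.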

What was measured:
Experiment in all cases: NCI-60 cell line screen, 48 h
CCRF-CEM leukemia = system: CCRF-CEM leukemia
SN12C renal = system: SN12C renal
MOLT-4 leukemia = system: MOLT-4 leukemia
NCI-H460 lung = system: NCI-H460 lung
SNB-75 CNS = system: SNB-75 CNS
SNB-19 CNS = system: SNB-19 CNS
A549 NSCLC = system: A549 NSCLC
MDA-MB-435 = system: MDA-MB-435
RXF 393 renal = system: RXF 393 renal
NCI/ADR-RES ovarian = system: NCI/ADR-RES ovarian
HS 578T breast = system: HS 578T breast
KM12 colon = system: KM12 colon
OVCAR-8 ovarian = system: OVCAR-8 ovarian
COLO 205 colon = system: COLO 205 colon
HOP-92 NSCLC = system: HOP-92 NSCLC
UO-31 renal = system: UO-31 renal
SF-268 CNS = system: SF-268 CNS
EKVX NSCLC = system: EKVX NSCLC
SW-620 colon = system: SW-620 colon
SF-295 CNS = system: SF-295 CNS
M14 melanoma = system: M14 melanoma
SK-OV-3 ovarian = system: SK-OV-3 ovarian
T-47D breast = system: T-47D breast
LOX IMVI melanoma = system: LOX IMVI melanoma
CAKI-1 renal = system: CAKI-1 renal
UACC-62 melanoma = system: UACC-62 melanoma
OVCAR-4 ovarian = system: OVCAR-4 ovarian
UACC-257 melanoma = system: UACC-257 melanoma
HCT-15 colon = system: HCT-15 colon
NCI-H23 lung = system: NCI-H23 lung
SF-539 CNS = system: SF-539 CNS
PC-3 prostate = system: PC-3 prostate
U251 CNS = system: U251 CNS
BT-549 breast = system: BT-549 breast
SK-MEL-2 melanoma = system: SK-MEL-2 melanoma
A498 renal = system: A498 renal
ACHN renal = system: ACHN renal
RPMI-8226 leukemia = system: RPMI-8226 leukemia
MCF7 breast = system: MCF7 breast
786-0 renal = system: 786-0 renal
HL-60(TB) leukemia = system: HL-60(TB) leukemia
SK-MEL-28 melanoma = system: SK-MEL-28 melanoma
DU-145 prostate = system: DU-145 prostate
HCT-116 colon = system: HCT-116 colon
TK-10 renal = system: TK-10 renal
HT29 colon = system: HT29 colon
MDA-MB-231 breast = system: MDA-MB-231 breast
OVCAR-5 ovarian = system: OVCAR-5 ovarian
OVCAR-3 ovarian = system: OVCAR-3 ovarian
HOP-62 NSCLC = system: HOP-62 NSCLC
NCI-H522 lung = system: NCI-H522 lung
SR leukemia = system: SR leukemia
K-562 leukemia = system: K-562 leukemia
NCI-H226 lung = system: NCI-H226 lung
HCC-2998 colon = system: HCC-2998 colon
IGROV1 ovarian = system: IGROV1 ovarian
SK-MEL-5 melanoma = system: SK-MEL-5 melanoma

## CCC1(N2C(=O)c3c(F)c(F)c(F)c(F)c3C2=O)C(=O)NC(=O)N(c2ccccc2)C1=O (configuration not stated)
CCRF-CEM leukemia
  GI50: 1.31 µM
  TGI: 3.8 µM
SN12C renal
  GI50: 1.57 µM
  TGI: 3.54 µM
MOLT-4 leukemia
  GI50: 2.64 µM
  TGI: 6.35 µM
NCI-H460 lung
  GI50: 3.22 µM
  TGI: 11.5 µM
SNB-75 CNS
  GI50: 1.9 µM
  TGI: 5.09 µM
SNB-19 CNS
  GI50: 3.93 µM
  TGI: 16.9 µM
A549 NSCLC
  GI50: 14 µM
  TGI: 28.6 µM
MDA-MB-435
  GI50: 2.89 µM
  TGI: 8.02 µM
RXF 393 renal
  GI50: 2.75 µM
  TGI: 15.5 µM
NCI/ADR-RES ovarian
  GI50: 7.69 µM
  TGI: 27.1 µM
HS 578T breast
  GI50: 4.14 µM
  TGI: 30.1 µM
KM12 colon
  GI50: 2.58 µM
  TGI: 8.31 µM
OVCAR-8 ovarian
  GI50: 3.47 µM
  TGI: 11.4 µM
COLO 205 colon
  GI50: 2.57 µM
  TGI: 6.78 µM
HOP-92 NSCLC
  GI50: 2.01 µM
  TGI: 4.17 µM
UO-31 renal
  GI50: 17.1 µM
  TGI: 63.7 µM
SF-268 CNS
  GI50: 3.66 µM
  TGI: 16 µM
EKVX NSCLC
  GI50: 2.77 µM
  TGI: 8.01 µM
SW-620 colon
  GI50: 1.76 µM
  TGI: 3.96 µM
SF-295 CNS
  GI50: 2.57 µM
  TGI: 7.55 µM
M14 melanoma
  GI50: 4.46 µM
  TGI: 19.4 µM
SK-OV-3 ovarian
  GI50: 10.6 µM
  TGI: 31 µM
T-47D breast
  GI50: 2.2 µM
  TGI: 4.72 µM
LOX IMVI melanoma
  GI50: 1.18 µM
  TGI: 2.73 µM
CAKI-1 renal
  GI50: 1.95 µM
  TGI: 4 µM
UACC-62 melanoma
  GI50: 1.41 µM
  TGI: 3.1 µM
OVCAR-4 ovarian
  GI50: 1.74 µM
  TGI: 4.08 µM
UACC-257 melanoma
  GI50: 5.06 µM
  TGI: 17.1 µM
HCT-15 colon
  GI50: 2.32 µM
  TGI: 7.14 µM
NCI-H23 lung
  GI50: 1.99 µM
  TGI: 4.02 µM
SF-539 CNS
  GI50: 2.24 µM
  TGI: 4.33 µM
PC-3 prostate
  GI50: 2.28 µM
  TGI: 16 µM
U251 CNS
  GI50: 1.53 µM
  TGI: 3.07 µM
BT-549 breast
  GI50: 2.1 µM
  TGI: 4.76 µM
SK-MEL-2 melanoma
  GI50: 3.84 µM
  TGI: > 100 µM
A498 renal
  GI50: 12.2 µM
  TGI: 25.9 µM
ACHN renal
  GI50: 4.02 µM
  TGI: 14.9 µM
RPMI-8226 leukemia
  GI50: 0.331 µM
  TGI: 2.58 µM
MCF7 breast
  GI50: 2.21 µM
  TGI: 17 µM
786-0 renal
  GI50: 3.34 µM
  TGI: 13.9 µM
HL-60(TB) leukemia
  GI50: 2.67 µM
  TGI: 4.57 µM
SK-MEL-28 melanoma
  GI50: 2.79 µM
  TGI: 10.6 µM
DU-145 prostate
  GI50: 4.87 µM
  TGI: 17.9 µM
HCT-116 colon
  GI50: 4.1 µM
  TGI: 18.2 µM
TK-10 renal
  GI50: 2.4 µM
  TGI: 5.57 µM
HT29 colon
  GI50: 2.23 µM
  TGI: 4.89 µM
MDA-MB-231 breast
  GI50: 1.7 µM
  TGI: 4.03 µM
OVCAR-5 ovarian
  GI50: 1.69 µM
  TGI: 3.43 µM
OVCAR-3 ovarian
  GI50: 1.67 µM
  TGI: 4.1 µM
HOP-62 NSCLC
  GI50: 4.93 µM
  TGI: 20.8 µM
NCI-H522 lung
  GI50: 3.13 µM
  TGI: 26.2 µM
SR leukemia
  GI50: 0.496 µM
  TGI: 4.32 µM
K-562 leukemia
  GI50: 2.31 µM
  TGI: 5.23 µM
NCI-H226 lung
  GI50: 10.9 µM
  TGI: 24.2 µM

## C=C(CC1(CC(=C)c2ccc(C(=O)O)cc2)C(=O)N(C)C(=O)N(C)C1=O)c1ccc(C(=O)O)cc1
CCRF-CEM leukemia
  GI50: 65.2 µM
  TGI: > 100 µM
SN12C renal
  GI50: 59.2 µM
  TGI: > 100 µM
MOLT-4 leukemia
  GI50: 38.3 µM
  TGI: > 100 µM
NCI-H460 lung
  GI50: > 100 µM
  TGI: > 100 µM
SNB-75 CNS
  GI50: 25.2 µM
  TGI: > 100 µM
SNB-19 CNS
  GI50: > 100 µM
  TGI: > 100 µM
A549 NSCLC
  GI50: > 100 µM
  TGI: > 100 µM
MDA-MB-435
  GI50: 51.7 µM
  TGI: > 100 µM
HCC-2998 colon
  GI50: 61.2 µM
  TGI: > 100 µM
RXF 393 renal
  GI50: > 100 µM
  TGI: > 100 µM
NCI/ADR-RES ovarian
  GI50: 63.8 µM
  TGI: > 100 µM
HS 578T breast
  GI50: 67.8 µM
  TGI: > 100 µM
KM12 colon
  GI50: > 100 µM
  TGI: > 100 µM
OVCAR-8 ovarian
  GI50: 62.8 µM
  TGI: > 100 µM
COLO 205 colon
  GI50: 29.1 µM
  TGI: > 100 µM
HOP-92 NSCLC
  GI50: 78.4 µM
  TGI: > 100 µM
UO-31 renal
  GI50: 57.2 µM
  TGI: > 100 µM
SF-268 CNS
  GI50: 70.4 µM
  TGI: > 100 µM
EKVX NSCLC
  GI50: > 100 µM
  TGI: > 100 µM
SW-620 colon
  GI50: > 100 µM
  TGI: > 100 µM
SF-295 CNS
  GI50: > 100 µM
  TGI: > 100 µM
M14 melanoma
  GI50: > 100 µM
  TGI: > 100 µM
SK-OV-3 ovarian
  GI50: 6.02 µM
  TGI: 58.7 µM
T-47D breast
  GI50: 25.2 µM
  TGI: > 100 µM
LOX IMVI melanoma
  GI50: 80.8 µM
  TGI: > 100 µM
CAKI-1 renal
  GI50: 60.3 µM
  TGI: > 100 µM
UACC-62 melanoma
  GI50: 42.7 µM
  TGI: > 100 µM
OVCAR-4 ovarian
  GI50: 23.2 µM
  TGI: > 100 µM
UACC-257 melanoma
  GI50: 34.9 µM
  TGI: > 100 µM
HCT-15 colon
  GI50: > 100 µM
  TGI: > 100 µM
NCI-H23 lung
  GI50: > 100 µM
  TGI: > 100 µM
SF-539 CNS
  GI50: > 100 µM
  TGI: > 100 µM
PC-3 prostate
  GI50: 63.2 µM
  TGI: > 100 µM
U251 CNS
  GI50: 54.2 µM
  TGI: > 100 µM
BT-549 breast
  GI50: > 100 µM
  TGI: > 100 µM
SK-MEL-2 melanoma
  GI50: > 100 µM
  TGI: > 100 µM
A498 renal
  GI50: 53.2 µM
  TGI: > 100 µM
ACHN renal
  GI50: > 100 µM
  TGI: > 100 µM
IGROV1 ovarian
  GI50: 47.4 µM
  TGI: > 100 µM
SK-MEL-5 melanoma
  GI50: 73.1 µM
  TGI: > 100 µM
RPMI-8226 leukemia
  GI50: 21.8 µM
  TGI: > 100 µM
MCF7 breast
  GI50: 73.9 µM
  TGI: > 100 µM
786-0 renal
  GI50: > 100 µM
  TGI: > 100 µM
HL-60(TB) leukemia
  GI50: 34.4 µM
  TGI: > 100 µM
SK-MEL-28 melanoma
  GI50: > 100 µM
  TGI: > 100 µM
DU-145 prostate
  GI50: > 100 µM
  TGI: > 100 µM
HCT-116 colon
  GI50: 49.6 µM
  TGI: > 100 µM
TK-10 renal
  GI50: 16 µM
  TGI: > 100 µM
HT29 colon
  GI50: 48.7 µM
  TGI: > 100 µM
MDA-MB-231 breast
  GI50: > 100 µM
  TGI: > 100 µM
OVCAR-5 ovarian
  GI50: 43.6 µM
  TGI: > 100 µM
OVCAR-3 ovarian
  GI50: 96.6 µM
  TGI: > 100 µM
HOP-62 NSCLC
  GI50: 66.5 µM
  TGI: > 100 µM
NCI-H522 lung
  GI50: 31.3 µM
  TGI: > 100 µM
SR leukemia
  GI50: 23.9 µM
  TGI: > 100 µM
K-562 leukemia
  GI50: 35.9 µM
  TGI: > 100 µM
NCI-H226 lung
  GI50: > 100 µM
  TGI: > 100 µM
